Source: patent publication US20220187282A1, “CARDIOMYOCYTE PROLIFERATION” (The Council of the Queensland Institute of Medical Research, priority 2019, published 2022)

Tested on: hPSC-CMs
Assay: 2D high-content primary screen, DNA synthesis (EdU) in hPSC-CM
Assay type: cell-based, human
Settings: for 2D Screen Max Effect (%): maximum over 0.1, 1, 10 uM
Excerpt: The compound library included 5,000 biologically annotated pre-clinical, clinical, and tool compounds. They were selected based on a combination of criteria including balancing the number of external/internal compounds, diversity of annotated targets to cover greater than 1500 biological targets, and known targets associated with cell proliferation. […] Both negative vehicle (DMSO) and positive (CHIR99021) controls were included on each plate in each experiment (FIG. 2B,C).

Compound	2D Screen (AZ) 0.1 uM Prolif Activation EdU (%)	2D Screen (AZ) 1 uM Prolif Activation EdU (%)	2D Screen (AZ) 10 uM Prolif Activation EdU (%)	2D Screen Max Effect (%)
Cc1ccc(NC(=O)c2ccnc(N3CCOCC3)c2)cc1Nc1ccnc(N2CC(C)OC(C)C2)n1 (centres unmarked) [compound 3]	−6	35	183	183
Cc1cc(Oc2ccnc(Nc3ccc(S(N)(=O)=O)cc3)c2)c(-c2ccccn2)nc1C [compound 65]	48	76	171	171
